Measured values reported in US10925857B2, “Rational drug design targeting resistant gram-negative bacterial infections to polymyxin-class antibiotics” (The Trustees of Columbia University in the City of New York, priority 2015, dated 2021).

Legend:
[1] = biological target: T1, E. coli ArnT (Escherichia coli, UniProt P76473); assay: Polymyxin B growth assay for compound screening, BL21 strain; type: cell-based; details: E. coli BL21 strain carrying E. coli ArnT; compound 0.5 mM; 3 μg/ml Polymyxin B; OD 600 nm
T1 construct: it carries the endogenous E. coli ArnT gene; endogenous in cells; host or cells: E. coli BL21(DE3)
Excerpt: (§1) FIGS. 8A-J show graphic results of the polymyxin growth assay for the five Class I compounds obtained in target-based virtual screening. In this and all subsequent figures showing results of compound testing in the polymyxin growth assay, four curves are shown, (i) growth of test strain (BL21 for targeting E. coli ArnT or Gi24 for targeting S. typhimurium ArnT) in the absence of PMXB (−PMXB, represented by an open circle), (ii) growth of test strain in the presence of PMXB (+PMXB, represented by an open square), (iii) growth of test strain in the absence of PMXB and in the presence of test compound (−PMXB+Cmpd, represented by open diamond), and (iv) growth of test strain in the presence of PMXB and test compound (+PMXB+Cmpd, represented by an […]). Each point in the curves represents the mean of six measurements of absorbance (OD) at 600 nm (triplicate samples from two independent experiments). Standard deviation is not shown, but typically ranged from 0.001 to 0.1. Growth of E. coli BL21 strain (carrying the E. coli ArnT) was measured in the presence of Class I compounds 20, 14, 15, 19, or U2 (FIGS. 8A, 8C, SE, 8G and 8I, respectively). Growth of E. coli Gi24 strain (carrying the S. typhimurium ArnT) was measured in the presence of Class I compounds 20, 14, 15, 19, or U2 (FIGS. 8B, 8D, 8F, 8H and 8J, respectively). […]

[2] = biological target: T2, Salmonella typhimurium ArnT (Salmonella typhimurium, UniProt O52327); assay: Polymyxin B growth assay for compound screening, Gi24 strain; type: cell-based; details: E. coli Gi24 strain carrying S. typhimurium ArnT; compound 0.5 mM; 3 μg/ml Polymyxin B; OD 600 nm
T2 construct: expressed in transfected cells; host or cells: E. coli BL21(DE3) ΔArnT transformed with plasmid pGi24 (strain Gi24)
Excerpt: as §1

[3] = tested on: E. coli BL21 ΔArnT strain; assay: Control polymyxin growth assay, BL21 ΔArnT strain; type: cell-based, Escherichia coli; details: endogenous ArnT gene deleted
Excerpt: (§2) E. coli BL21 strain is used to test efficacy of tested compounds towards the E. coli ArnT protein. […] Gi24 is E. coli BL21 ΔArnT that has been transformed with the plasmid pGi24 that expresses the wt Salmonella typhimurium ArnT. […] The Gi24 strain is used to test efficacy of tested compounds towards the Salmonella typhimurium ArnT protein.
(§3) Three strains were used for the implementation of the polymyxin B growth assay for compound screening in a 96-well plate format: (1) BL21 (DE3) E. coli strain (referred to as BL21). […] E. coli BL21 strain is used to test efficacy of tested compounds towards the E. coli ArnT protein. (2) E. coli BL21(DE3) ΔArnT the endogenous E. coli ArnT gene has been deleted, thus rendering the E. coli BL21 ΔArnT strain sensitive to polymyxin B (referred to as ΔArnT). (3) E. coli BL21(DE3) ΔArnT that has been transformed with the plasmid pGi24 that expresses the wt Salmonella typhimurium ArnT (referred to as Gi24). […]
(§4) Overnight cultures of the three strains were used to inoculate LB media containing 100 μg/ml Ampicillin alone (PMXB−) or 100 μg/ml and 3 μg/ml Polymyxin B (PMXB+) at 1:2000 dilution, as appropriate. […] The 96-well plate was transferred to an Epoch 2 microplate reader (Biotek) and shaken continuously at 37° C. Growth was continuously quantitated spectrophotometrically at 600 nm. […]

[4] = tested on: Gi24 strain (E. coli BL21 ΔArnT expressing wt Salmonella typhimurium ArnT); assay: Control polymyxin growth assay, Gi24 strain; type: cell-based, Escherichia coli; details: Gi24: BL21 ΔArnT with plasmid pGi24 expressing wt S. typhimurium ArnT
Excerpt: as §2, §3, §4

[5] = tested on: E. coli BL21 strain; assay: Control polymyxin growth assay, BL21 strain; type: cell-based, Escherichia coli; details: E. coli BL21, endogenous E. coli ArnT gene
Excerpt: as §2, §3, §4

T1 sequence (P76473 whole entry): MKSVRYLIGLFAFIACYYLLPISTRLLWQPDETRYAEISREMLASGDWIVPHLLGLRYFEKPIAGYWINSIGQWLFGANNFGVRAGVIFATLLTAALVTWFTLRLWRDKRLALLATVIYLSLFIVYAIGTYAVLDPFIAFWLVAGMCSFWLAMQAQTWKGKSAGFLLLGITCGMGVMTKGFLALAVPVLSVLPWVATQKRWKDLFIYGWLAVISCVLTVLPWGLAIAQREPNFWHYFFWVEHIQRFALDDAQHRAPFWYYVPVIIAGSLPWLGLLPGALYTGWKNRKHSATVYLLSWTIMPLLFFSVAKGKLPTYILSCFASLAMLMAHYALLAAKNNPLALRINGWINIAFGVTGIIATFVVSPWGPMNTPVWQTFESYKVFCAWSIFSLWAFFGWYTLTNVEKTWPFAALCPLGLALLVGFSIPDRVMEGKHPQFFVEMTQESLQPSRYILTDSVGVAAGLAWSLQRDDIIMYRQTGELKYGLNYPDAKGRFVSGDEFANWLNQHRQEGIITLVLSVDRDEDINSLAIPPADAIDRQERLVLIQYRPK

Compound	ArnT inhibiting activity (retardation of growth of polymyxin resistant strain in the presence of PMXB) [1]	ArnT inhibiting activity (retardation of growth of polymyxin resistant strain in the presence of PMXB) [2]	growth of strain in the presence of PMXB [3]	growth of strain in the presence of PMXB [4]	growth of strain in the presence of PMXB [5]
Cc1[nH]nc(O)c1C(c1ccc(Cl)cc1)c1c(O)n[nH]c1C [Compound 20, 4-[(4-chlorophenyl)-(3-methyl-5-oxo-1,2-dihydropyrazol-4-yl)methyl]-5-methyl-1,2-dihydropyrazol-3-one]	especially strong ArnT inhibiting activity	especially strong ArnT inhibiting activity	–	–	–
polymyxin B	–	–	absence of growth	growth of Gi24 strain in the presence of PMXB	inherently resistant
